What was measured:
Type in all cases: cell-based, Saccharomyces cerevisiae
barrier-free yeast = assay: Cycloheximide sensitivity of barrier-free yeast; conditions: cycloheximide 50 ng/ml
[1] = system: MATa-type super barrier-free YKO strains; assay: Cycloheximide sensitivity of MATa-type super barrier-free YKO strains; conditions: cycloheximide 25 ng/ml; all strains
Method: Instead of picking up the entire grown colonies with the 96-pin replicator, the grown colonies were picked up one by one (1 colony/strain) with a toothpick to transfer it onto new MATa selection agar medium, and culture at 30° C. for 7 days. Grown cells were picked up with a disposable 96-pin replicator, suspended in 100 μl of MATa selection liquid medium, and cultured at 25° C. for 2 to 7 days. Subsequently, the grown cells were transferred to a 384-well plate using a dispenser robot SHOTMASTER 3000.

[2] = system: parent strain (WT:BY4741); assay: Evaluation of sensitivity to rapamycin (area score, ARS), parent strain; conditions: FIG. 5
Method: (§1) In the same manner as in Example 5, to confirm drug sensitivity of the barrier-free YKO (BF-YKO) and super barrier-free YKO (SBF-YKO), changes in sensitivity of the yeasts caused by the proliferation inhibiting effect of rapamycin were examined using a parent strain and a partner strain.
(§2) A rapamycin solution was added to a 96-well plate such that the concentration of rapamycin (Sigma-Aldrich, #R0395) was varied within the range of from 0.2 nM to 50 nM. A parent strain (WT:BY4741, Open Biosystems, #YSC1048), a barrier-free strain (BF:KE457), and a super barrier-free strain (SBF:KE477), which had been subjected to static culture at room temperature for 2 days, were added such that the final cell numbers was at a 1000-fold dilution, and then subjected to static culture at 30° C.
(§3) Thereafter, light absorbance thereof at 620 nm was measured over time using a plate reader (SUNRISE, manufactured by Tecan) for 48 hours. Calculation of the cell proliferation inhibiting activity was carried out using the area score method (ARS) described in Japanese Patent Application Laid-Open No. 2006-141298. In ARS, a larger value indicates a greater cell proliferation inhibiting activity.

[3] = system: barrier-free strain (BF:KE457); assay: Evaluation of sensitivity to rapamycin (area score, ARS), barrier-free strain; conditions: FIG. 5
Method: as §1, §2, §3

[4] = system: super barrier-free strain (SBF:KE477); assay: Evaluation of sensitivity to rapamycin (area score, ARS), super barrier-free strain
Method: as §1, §2, §3

[5] = system: parent strain (WT:BY4742); assay: Evaluation of sensitivity to lovastatin (area score, ARS), parent strain; conditions: lovastatin concentration 100 μM, FIG. 4
Method: (§4) A lovastatin solution was added to a 96-well plate such that the concentration of lovastatin (Sigma-Aldrich, #M2147) was within the range of from 0.39 μM to 100 μM. A parent strain (WT:BY4742, Open Biosystems, #YSC1049) a partner strain for barrier-free YKO (BF:KE458), and a partner strain for super barrier-free YKO (SBF:KE513), which had been subjected to static culture at room temperature for 2 days, were added to the plate such that the final cell number was at a 2000-fold dilution, and then subjected to static culture at 30° C.
as §3

[6] = system: partner strain for barrier-free YKO (BF:KE458); assay: Evaluation of sensitivity to lovastatin (area score, ARS), barrier-free partner strain
Method: as §4, §3

[7] = system: partner strain for super barrier-free YKO (SBF:KE513); assay: Evaluation of sensitivity to lovastatin (area score, ARS), super barrier-free partner strain
Method: as §4, §3

[8] = system: super barrier-free YKO (SBF-YKO) knockout strains; assay: Identification of target molecule using super barrier-free YKO (sensitivity ranking by area score); conditions: lovastatin 3.125 μM
Method: Identification of a target molecule of lovastatin was conducted using the super barrier-free YKO (SBF-YKO) composed of 4,044 strains prepared as above. The SBF-YKO strains were inoculated into twelve 384-well plates (1 strain/well) in an ordered manner, and subjected to 3 to 7 days of static culture to equalize the number of cells across all strains. The cells were diluted 196-fold, thereby obtaining a cell dilution.
On the other hand, 384-well plates in which 20 μl of YPAD medium containing 3.9 μM lovastatin was added to each well, and 384-well plates in which 20 μl of lovastatin-free YPAD medium was added to each well were prepared. 5 μl of the obtained cell dilution was added to each well. By this operation, the cells were diluted 1000-fold and the compound concentration was adjusted to 3.125 μM.
(§5) These cells were cultured at 25° C., and light absorbance thereof at 650 nm was measured over time using a plate reader (SPECTRAMAX340PC384, Molecular Devices) from about 22 hours to 48 hours after the beginning of the culture. The area scores (ARS) were calculated based on the obtained data, thereby ranking the sensitivity.
In the same manner as in Example 6, identification of a target molecule of rapamycin was conducted using super barrier-free YKO (SBF-YKO). Each of the SBF-YKO strains was subjected to 3 to 7 days of static culture to equalize the number of cells across all strains. […]

[9] = system: barrier-free YKO (BF-YKO) knockout strains; assay: Identification of target molecule using barrier-free YKO (sensitivity ranking by area score)
Method: Using the barrier-free YKO (BF-YKO) composed of 3,011 strains as prepared above, a target molecule of lovastatin was identified. The strains of BF-YKO were inoculated into twelve 384-well plates (1 strain/well) in an ordered manner. The static culture was performed for 3 to 7 days to equalize the number of cells across all strains. The cells were diluted 196-fold, thereby obtaining a cell dilution.
On the other hand, 384-well plates wherein 20 μl of YPAD medium containing 3.9 μM, 7.8 μM or 15.6 μM lovastatin was added to each well, and 384-well plates in which 20 μl of lovastatin-free YPAD medium was added to each well were prepared. 5 μl of the obtained cell dilution was added to each well. By this operation, the cells were diluted 1000-fold and the respective concentrations of the compound were adjusted to 3.125 μM, 6.25 μM and 12.5 μM.
as §5

[10] = system: commercially available YKO (Invitrogen, #95401.H2) knockout strains; assay: Identification of target molecule using commercially available YKO collection (sensitivity ranking by area score)
Method: Identification of a target molecule of lovastatin was conducted in the same manner as in Example 7, except that commercially available YKO (Invitrogen, #95401.H2) composed of 4,847 strains was used instead of BF-YKO.
Identification of a target molecule of rapamycin was conducted in the same manner as in Example 9, except that commercially available YKO (Invitrogen, #95401.H2) composed of 4,847 strains was used instead of SBF-YKO and that the compound concentrations were changed to 10 nM, 12.5 nM and 15 nM.

[11] = based on lovastatin concentrations at which an area score of about 10 was obtained

C[C@@H]1C[C@@H]([C@H](O)CC2CC(=O)NC(=O)C2)C(=O)[C@@H](C)C1 [cycloheximide]
growth in the presence of cycloheximide (barrier-free yeast): cannot grow
growth in the presence of cycloheximide [1]: could not grow

CO[C@H]1C[C@@H]2CC[C@@H](C)[C@@](O)(O2)C(=O)C(=O)N2CCCC[C@H]2C(=O)O[C@H]([C@H](C)C[C@@H]2CC[C@@H](O)[C@H](OC)C2)CC(=O)[C@H](C)/C=C(\C)[C@@H](O)[C@@H](OC)C(=O)[C@H](C)C[C@H](C)/C=C/C=C/C=C/1C [rapamycin]
concentration at which maximum cell proliferation inhibiting effect was observed [2]: 50 nM
concentration at which maximum cell proliferation inhibiting effect was observed [3]: 50 nM
concentration at which maximum effect was exhibited ([4]; FIG. 5): 6.25 nM
sensitization relative to the WT strain ([4]; based on rapamycin concentrations at which an area score of about 10 was obtained): 8 times

CC[C@H](C)C(=O)O[C@H]1C[C@@H](C)C=C2C=C[C@H](C)[C@H](CC[C@@H]3C[C@@H](O)CC(=O)O3)[C@H]21 [lovastatin]
cell proliferation inhibiting effect [5]: only a slight cell proliferation inhibiting effect
concentration at which maximum inhibiting activity was exhibited ([6]; FIG. 4): 50 µM
sensitization relative to the WT strain [6, 11]: 8 times
concentration at which maximum inhibiting activity was exhibited ([7]; FIG. 4): 25 µM
sensitization relative to the WT strain [7, 11]: 16 times
sensitivity of BTS1-knockout strain [8]: most sensitive knockout strain
sensitivity of HMG1 gene knockout strain [8]: high sensitivity
sensitivity of HMG1 gene knockout strain ([9]; lovastatin 6.25 μM): high sensitivity
sensitivity of HMG1 gene knockout strain ([9]; lovastatin 12.5 μM): high sensitivity
sensitivity of HMG1 gene knockout strain ([10]; lovastatin 3.125 μM): not found as a strain exhibiting sensitivity
sensitivity of BTS1-knockout strain ([10]; lovastatin 3.125 μM and 12.5 μM): not found as a strain exhibiting sensitivity
sensitivity of HMG1 gene knockout strain ([10]; lovastatin 12.5 μM): not found as a strain exhibiting sensitivity

— patent US20100240074A1 (priority 2007, published 2010)
